Format in all cases: cell-based, rat
The test system of assay [1] is PC12 cells. As to the kind of experiment: Neuroprotective action against β-amyloid, viable cell count / survival rate by WST-8 method. The arrangement: key to Neuroprotective action: +, P < 0.05 when compared with the no neuropeptide-added group. Particulars: for neuroprotective action against cell death by β-amyloid (cell survival rate): co-existing with β-amyloid, PACAP27 10^−9 M, FIG. 5. As for the experimental part: An experiment was performed similarly to Example 5, and then the neuroprotective action against cell death by β-amyloid of the following PACAP-related neuropeptides (peptides 1, 2, 4, 5, 7, 8, 15, 16, 17, 19, 21, 26, 27, 28, 29, 30, 31, 32, 33, 34, 35, 36, 37, 38 and 39) and VIP-related neuropeptides (peptides 3, 9, 10, 11, 12, 13, 14, 18, 20, 22, 23, 24 and 25) was confirmed. Specifically, amyloid (50 μM) and each of the various PACAP-related neuropeptides and VIP-related neuropeptides were added to the cultured PC12 cells. The number of […] calculated by the WST-8 method, so that comparison and examination was performed for the neuroprotective action of these various peptides against amyloid. If the neuropeptides had neuroprotective action, a clear difference in viable cell count can be observed between cases in which neuropeptides were added and cases in which neuropeptides were not added. In PC12 cells added with each of the various neuropeptides, a case wherein a higher cell survival rate (P<0.05) was observed compared with groups in which neuropeptides had not been added, was determined as having neuroprotective action. The results are shown in Table 1 and Table 2. β-amyloid was added to PC12 cells that had been cultured similarly to Example 5. At this time, neuropeptides PACAP27, VIP and humanin, and a cell-permeable cAMP derivative were allowed to respectively co-exist, so that the effect of these neuropeptides against cell death by β-amyloid was confirmed. Cell death was examined by evaluating cell count using the WST-8 method, and then by calculating cell survival rate. […] In the presence of β-amyloid, approximately 70% of the cells died. […] The neuroprotective action of humanin, a recently found human-derived neuroprotective substance (Proc Natl Acad Sci USA (2001) 98 (11) 6336-6341), was also examined. […] At this time, neuropeptides at various concentrations were allowed to co-exist, so that the relationship between the neuroprotective action and the concentration was investigated. Cells were calculated by the WST-8 method, and then the extent to which cell death by β-amyloid could be attenuated was expressed numerically.
(In general: Formazan colour is commonly taken as a measure of viable cells.)

The subject of assay [2] is caspase-3. Briefly: Caspase-3 activating action of β-amyloid and its suppression (Ac-DEVD-AMC substrate). Particulars: 10^−5 M β-amyloid; cAMP derivative 10^−4 M; FIG. 7. The method, then:
PC12 cells that had been cultured almost similarly to Example 4 were cultured in a 24-well plate (2×10^5 cells/well). 10^−5 M β-amyloid was added to the plate. At this time, cAMP derivative (10^−4 M) and neuropeptide PACAP (10^−9 M) were added respectively, and then the action of activating caspase-3, an apoptosis-related enzyme, was examined. The caspase-3 activating action was examined using Ac-DEVD-AMC, a caspase-3 specific substrate. […] Further, by the addition of neuropeptide PACAP, an incomplete, approximately 50% suppressive effect was shown. […] Taking into consideration that this suppressive action is not complete, other action mechanisms may also be involved.

Assay [3] deals with PC12 cells. Briefly: Cell death by β-amyloid monitored by lactate dehydrogenase release. Particulars: β-amyloid 10^−5M; PACAP27 10^−9M; over time; 0.2 μM insulin-containing serum-free DMEM; FIG. 4.
Where [4] appears, read: PACAP-related neuropeptide 10^−9 M, amyloid (50 μM), cell survival rate vs no peptide.
The mark [5] stands for this setting: VIP-related neuropeptide 10^−7 M, amyloid (50 μM), cell survival rate vs no peptide.

Where two headings read alike, the source gives them in different places. Square brackets hold non-standard residues; d marks the D form. Nle = CCCC[C@H](N)C(=O)O

In the case of `CCCC(=O)Nc1ncnc2c1ncn2[C@@H]1O[C@@H]2COP(=O)(O)O[C@H]2[C@H]1OC(=O)CCC` [dibutyryl-cAMP, reference compound], the “neuroprotective action against cell death by β-amyloid (cell survival rate)” value (from here on “neuroprotective action … (cell survival rate)”) in assay [1] was “cell death was very strongly suppressed”. In addition, the “effect on caspase-3 activation by β-amyloid” value in assay [2] is reported as “significantly attenuated”. For “Arg-PACAP27 (H-HSDGIFTDSYSRYRRQLAVRRYLAAVL-NH2; ends and bridges not checked) [Peptide 6]”, the Neuroprotective action entry in assay [1] (setting [4]) is listed as “+”. With “Arg-PACAP38 (H-HSDGIFTDSYSRYRRQLAVRRYLAAVLGRRYRQRVRNR-NH2; ends and bridges not checked) [Peptide 4]”, the Neuroprotective action result in assay [1] (setting [4]) is “+”. On to “PACAP27 (H-HSDGIFTDSYSRYRKQMAVKKYLAAVL-NH2; ends and bridges not checked) [Peptide 2]”, for which, in assay [3], the “neuroprotective action against cell death by β-amyloid (lactate dehydrogenase released into media)” value is listed as “cell death was very strongly suppressed”. For the same compound, the Neuroprotective action entry in assay [1] (setting [4]) is “+”. Further, the “neuroprotective action … (cell survival rate)” value in assay [1] was “distinctly strong neuroprotective action”.

With “PACAP27 highly basic derivative A (H-HSDGIFTDSYSRYRRQLAVRRYLAAVLGK-NH2; ends and bridges not checked) [Peptide 15]”, the Neuroprotective action result in assay [1] (setting [4]) is “+”. The same measure, in the same setting: the same measure for “PACAP27 highly basic derivative B (H-HSDGIFTDSYSRYRRQLAVRRYLAAVLGKR-NH2; ends and bridges not checked) [Peptide 16]”: “+”; for “PACAP27 highly basic derivative C (H-HSDGIFTDSYSRYRRQLAVRRYLAAVLGRR-NH2; ends and bridges not checked) [Peptide 17]”: “+”. As to PACAP38 [Peptide 1], the Neuroprotective action result in assay [1] is on record as “+”. Take “PACAP long form (PACAP28) (H-HSDGIFTDSYSRYRKQMAVKKYLAAVLG-NH2; ends and bridges not checked) [Peptide 29]”: in assay [1] (setting [4]), the Neuroprotective action entry is given as “+”. The same measure, in the same setting: the same measure for “PACAP long form (PACAP29) (H-HSDGIFTDSYSRYRKQMAVKKYLAAVLGK-NH2; ends and bridges not checked) [Peptide 30]”: “+”; for “PACAP long form (PACAP30) (H-HSDGIFTDSYSRYRKQMAVKKYLAAVLGKR-NH2; ends and bridges not checked) [Peptide 31]”: “+”; for “PACAP long form (PACAP31) (H-HSDGIFTDSYSRYRKQMAVKKYLAAVLGKRY-NH2; ends and bridges not checked) [Peptide 32]”: “+”. Same read-out and setting: the entry for “PACAP long form (PACAP32) (H-HSDGIFTDSYSRYRKQMAVKKYLAAVLGKRYK-NH2; ends and bridges not checked) [Peptide 33]” is “+”; for “PACAP long form (PACAP33) (H-HSDGIFTDSYSRYRKQMAVKKYLAAVLGKRYKQ-NH2; ends and bridges not checked) [Peptide 34]” it is “+”. On the same count and under the same terms, the entry for “PACAP long form (PACAP34) (H-HSDGIFTDSYSRYRKQMAVKKYLAAVLGKRYKQR-NH2; ends and bridges not checked) [Peptide 35]” is “+”; for “PACAP long form (PACAP35) (H-HSDGIFTDSYSRYRKQMAVKKYLAAVLGKRYKQRV-NH2; ends and bridges not checked) [Peptide 36]” it is “+”; for “PACAP long form (PACAP36) (H-HSDGIFTDSYSRYRKQMAVKKYLAAVLGKRYKQRVK-NH2; ends and bridges not checked) [Peptide 37]” it is “+”. Turning to “PACAP long form (PACAP37) (H-HSDGIFTDSYSRYRKQMAVKKYLAAVLGKRYKQRVKN-NH2; ends and bridges not checked) [Peptide 38]”, the Neuroprotective action result in assay [1] (setting [4]) is reported as “+”. For “PACAP short form (H-HSDGIFTDSYSRYRKQMAVKKYL-NH2; ends and bridges not checked) [Peptide 19]”, in assay [1] (setting [4]), the Neuroprotective action result is reported as “+”. With “PACAP short form (PACAP24) (H-HSDGIFTDSYSRYRKQMAVKKYLA-NH2; ends and bridges not checked) [Peptide 26]”, the Neuroprotective action entry in assay [1] (setting [4]) is reported as “+”. With “PACAP short form (PACAP25) (H-HSDGIFTDSYSRYRKQMAVKKYLAA-NH2; ends and bridges not checked) [Peptide 27]”, the Neuroprotective action result in assay [1] (setting [4]) is on record as “+”. On the same count and under the same terms, the entry for “PACAP short form (PACAP26) (H-HSDGIFTDSYSRYRKQMAVKKYLAAV-NH2; ends and bridges not checked) [Peptide 28]” is “+”.

Consider “PACAP-like-peptide (stargazer-PACAP) (H-HSDGIFTDSYSRYRKQMAVQKYLAAVLGRRYRQRVRNK-NH2; ends and bridges not checked) [Peptide 5]”, for which, in assay [1] (setting [4]), the Neuroprotective action result was “+”. The same measure, in the same setting: the same measure for “PACAP-like-peptide (stingray-PACAP) (H-HSDGIFTDSYSRYRKQMAVKKYLAAVLGKRYKPKRRNSGRRVFY-NH2; ends and bridges not checked) [Peptide 21]”: “+”. Consider “VIP highly basic derivative A (HSDAVFTDNYTRLRRQLAVRRYLNSILNGK) [Peptide 11]”, for which the Neuroprotective action entry in assay [1] (setting [5]) is recorded as “+”. Regarding “VIP highly basic derivative B (HSDAVFTDNYTRLRRQLAVRRYLNSILNGKR) [Peptide 12]”, the Neuroprotective action result in assay [1] (setting [5]) is “+”.

Consider “VIP highly basic derivative C (HSDAVFTDNYTRLRRQLAVRRYLNSILNGRR) [Peptide 13]”, for which, in assay [1] (setting [5]), the Neuroprotective action entry is given as “+”. On the same count and under the same terms, the same measure for “VIP short form (HSDAVFTDNYTRLRKQMAVKKYL) [Peptide 20]”: “+”; for “VIP short form (VIP24) (HSDAVFTDNYTRLRKQMAVKKYLN) [Peptide 22]”: “+”; for “VIP short form (VIP25) (HSDAVFTDNYTRLRKQMAVKKYLNS) [Peptide 23]”: “+”. Same read-out and setting: the same measure for “VIP short form (VIP26) (HSDAVFTDNYTRLRKQMAVKKYLNSI) [Peptide 24]”: “+”. Take “VIP short form (VIP27) (HSDAVFTDNYTRLRKQMAVKKYLNSIL) [Peptide 25]”: the Neuroprotective action result in assay [1] (setting [5]) is “+”. Take “VIP/PACAP highly basic chimera peptide (H-HSDAVFTDNYTRLRRQ[Nle]AVRRYLNSILNGRRYRQRVRNR-NH2; ends and bridges not checked) [Peptide 18]”: the Neuroprotective action result in assay [1] (setting [5]) is “+”. Turning to [A^4, V^5, N^9]-PACAP27 [Peptide 8], the Neuroprotective action entry in assay [1] (setting [4]) is on record as “+”. Still for that read-out and setting: the entry for “[A^4, V^5]-PACAP27 (H-HSDAVFTDSYSRYRKQMAVKKYLAAVL-NH2; ends and bridges not checked) [Peptide 7]” is “+”.

Consider “[G^4, I^5, S^9]-VIP (H-HSDGIFTDSYTRLRKQMAVKKYLNSILN-NH2; ends and bridges not checked) [Peptide 10]”, for which the Neuroprotective action result in assay [1] (setting [5]) is “+”. On the same count and under the same terms, the same measure for “[G^4, I^5]-VIP (H-HSDGIFTDNYTRLRKQMAVKKYLNSILN-NH2; ends and bridges not checked) [Peptide 9]”: “+”. Regarding “humanin (MAPRGFSCLLLLTSEIDLPVKRRA; Humanin; UniProt Q8IVG9 1-24, looked up) [a recently found human-derived neuroprotective substance, reference compound]”, the “neuroprotective action … (cell survival rate)” value in assay [1] is listed as “showed neuroprotective action, although the effect was also weaker than that of PACAP27”.

(Values after patent US20040132648A1, “Remedies and/or preventives for conformational diseases” (priority 2001, published 2004).)
